# Read-outs that look alike come from different tables or passages of the source.
# Assays:
# [1] = Membrane integrity / modified propidium iodide procedure; assay type: cell-based; details: rat, membrane integrity assay, read-out: TC50
# Experimental: (§1) Toxicity testing has been carried out for 3 separate polyamides. Two different Rat hepatoma assays were used because they are industry standards for predicting in vivo toxicity. The assays for ATP and membrane integrity assays are described in detail below. Thus, rat hepatoma cells (H4IIE) were seeded into 96-well plates and cultured in medium containing 20% bovine serum. Following an equilibration period of 48 hr, the cells were treated with the test compounds at various concentrations for 24 hr at 37° C. in 5% CO2. Polyamide compounds were tested for toxicity in the two separate assays. A TC50 (concentration needed to kill half of the cells) was not achieved for any polyamides tested over the wide concentration range explored.
# A modified propidium iodide (PI) procedure was used to assess cell proliferation/viability. This specific nucleic acid binding dye fluoresces when intercalated within the nucleic acids. The […] enhances PI fluorescence approximately 20 times while the excitation maxima are shifted 30-40 ηm. During method development experiments, it was determined that Triton-X-100 was the best solution to permeabilize the H4IIE cells thereby allowing the PI access to intracellular RNA and DNA. Fluorescence was measured using a Packard Fusion plate reader at 540 ηm excitation and 610 nm emission.
# [2] = test system: rat hepatoma cells (H4IIE); assay type: cell-based
# Experimental: as §1
# HPV 16 [3] = assay: HPV 16 episome DNA levels in W12E cells by Q-PCR (Taqman); assay type: cell-based, Human papilloma virus; details: 10 μM, drug washed out on day 17, sub-cultured without drug for 2 weeks; FIG. 7
# HPV18 = HPV18 DNA levels in keratinocytes by real-time PCR; assay type: cell-based, Human papilloma virus; details: effective (pseudo) IC50
# Experimental: (§2) Human keratinocytes, including those maintaining HPV episomes, are cultured on mitomycin C-treated J2 3T3 cells in media containing three parts Dulbecco's modified Eagle medium (DMEM) and one part F12 media, our modification of published methods (Rheinwald and Green, 1975). Media (E Media) is supplemented with 0.4 μg/mL hydrocortisone, 10 ng/mL cholera toxin, 5 μg/mL insulin, 24 μg/mL adenine, 5 μg/mL transferrin, […] (T3), 10 ng/mL epidermal growth factor (EGF), 1% penicillin-streptomycin, and 5% fetal bovine serum (FBS). All cells are passaged at 70% confluency at a split ratio of 1:5.
# (§3) Polyamides for HPV 18 are dissolved at 10 mM in 100% DMSO and diluted with H2O to 1 mM. Polyamides are added to cells in E media at final concentrations of 0.1-10 μM, with final DMSO concentrations of 0.1%. As controls, cells are incubated with normal E media and E media containing the “vehicle” 0.1% DMSO. The HPV DNA levels are then quantified according to previously published procedures (Garner-Hamrick and Fisher, Virology, 301, 334-41, 2002). After incubation, cells are harvested from the plates by either trypsinization or direct lysis with proteinase K digestion buffer (PK buffer: 100 mM NaCl, 10 mM Tris pH 8, 25 mM EDTA, 0.5% SDS, 0.1 mg/mL proteinase K). Trypsinized cells are counted on a hemocytometer and pelleted by centrifugation. Episomal HPV is isolated by the Hirt method (Hirt, 1967) and cell pellets are lysed in 0.6% SDS with 10 mM EDTA. NaCl is next added to a final concentration of 1 M. Following an overnight incubation at 4° C., precipitates containing the chromosomal DNA are spun down and episomal DNA precipitated by the addition of isopropanol. Cells lysed directly in PK buffer are transferred to microfuge tubes and incubated at 50° C. for 2 h. Lysates are then extracted with phenol/chloroform/isoamyl alcohol and spun through a phase lock gel (Eppendorf, Hamburg, Germany). Total DNA is then precipitated with 0.3 M NaOAc and 2.5 vol. ethanol and resuspended in Tris-EDTA (TE) buffer.
# Viral DNA levels are next quantified according to variations on our previously published methods (Garner-Hamrick and Fisher, Virology, 301, 334-41, 2002). Quantitative PCR is performed using Real-Time PCR technology on an ABI PRISM 7700 Sequence Detector. All primers and probes were designed using Primer Express 1.0 (ABI). For HPV 18, PCR primer-probe sets were designed within the L1 gene:
# (§4) All primers and probes are synthesized and HPLC purified by Applied Biosystems (Foster City, Calif.). The HPV probes are labeled with the 5′ reporter dye FAM (6-carboxy-fluorescein) and the 3′ quencher dye TAMRA (6-carboxytetramethyl-rhodamine). A standard curve is generated using a range of 10^8 to 10 copies/reaction of cloned, genomic HPV31 or HPV18 DNA using the following formula: (1.82×10^15)(μg/μL stock DNA)/(length in base pairs)(2)=copies/μL stock DNA. PCR reactions contain final concentrations of 1× Universal Master Mix (PE Applied Biosystems), 200 nM of each primer, and 250 nM probe (PE Applied Biosystems) in a reaction volume of 25 μL. Each Hirt-isolated DNA sample is analyzed in triplicate reactions for episomal HPV. Copies/reaction are determined from the standard curve, and copies/cell determined according to the following formula: (copies/reaction)×(DNA dilution)/(total # cells)=copies/cell.
# HPV 16 [4] = assay: HPV 16 episome DNA levels in W12E cells by Q-PCR (Taqman); assay type: cell-based, Human papilloma virus; details: for effect on absolute HPV 16 DNA levels: higher doses, in some experiments, FIG. 3; for effect on HPV viral DNA: comparison of 1037, distamycin A and cidofovir, FIG. 5
# HPV31 = HPV31 DNA levels in keratinocytes by real-time PCR; assay type: cell-based, Human papilloma virus; details: effective (pseudo) IC50
# Experimental: as §2, §3
# HPV31 primers-probe sets for PCR were also designed within the L1 gene:
# as §4
# [5] = test system: Keratinocytes that maintain HPV 16 episomes; assay: MTT cell viability assay; details: MTT assay; FIG. 2B, FIG. 5
# Experimental: (§5) Cells were cultured for 5 days in the presence of polyamide; % Cell Viability=(OD590 drug/OD590 control)×100; n=3.
# (§6) Solubilisation of the cells by the addition of a detergent results in the liberation of the crystals which are solubilized. The number of surviving cells is directly proportional to the level of the formazan product created. The color can then be quantified using a simple colorimetric assay. The results can be read on a multiwell scanning spectrophotometer (ELISA reader).
# (§7) Cell viability was also assessed routinely with the MTT assay.
# MTT cell viability assay = details: human, keratinocytes that maintain HPV 16 episomes
# Experimental: as §5, §6, §7
# HPV episomal DNA = assay: Southern blot of HPV episomal DNA; assay type: cell-based, Human papilloma virus; details: 1 μM and 10 μM; FIG. 4
# Experimental: Several alternative approaches have been used to confirm the effects of our compounds on viral DNA. […] DMSO is the vehicle control; HPV DNA indicates the linearized HPV DNA used to generate the hybridization probe via random primed labeling with DIG-dUTP (Roche); following hybridization, blot was incubated with anti-DIG-AP conjugate and HPV DNA detected using ECF substrate (Amersham) and Storm phosphorimager. […] Other NV compounds have similarly shown the expected decrease in viral DNA by Southern blotting.
# [6] = effective (pseudo) IC50, 50% reduction in HPV DNA relative to vehicle (0.1% DMSO), read-out: HPV-16 IC50
IC50 (HPV 16 [4]; [6]),IC50 (HPV31),SMILES,IC50 (HPV18),effect on absolute HPV 16 DNA levels (HPV 16 [4]),effect on cell viability [5],effect on HPV viral DNA (HPV 16 [4]),further results
,,CC[C@@]1(O)C(=O)OCc2c1cc1n(c2=O)Cc2cc3ccccc3nc2-1 [camptothecin],,,,,CC50 at 24 h ([1]; H4IIE rat hepatoma cells): 5 µM
0.1 to 1 µM,0.1 to 1 µM,"CN(CCCN)CCCNC(=O)CCNC(=O)c1cc(NC(=O)c2cc(NC(=O)c3cc(NC(=O)c4cc(NC(=O)CCNC(=O)c5cc(NC(=O)c6cc(NC(=O)CCCNC(=O)c7cc(NC(=O)c8cc(NC(=O)c9cc(NC(=O)CCNC(=O)c%10cc(NC(=O)c%11cc(NC(=O)c%12nccn%12C)cn%11C)cn%10C)cn9C)cn8C)cn7C)cn6C)cn5C)cn4C)cn3C)cn2C)cn1C [Polyamide 1028, ImPPβPPPγPPβPPPPβTa]",0.1 to 1 µM,nearly complete elimination of detectable viral DNA,,,CC50 [2]: > 300 µM; HPV 16 episomal DNA rebound after withdrawal (HPV 16 [3]): recovery does not approach control levels for at least two weeks; HPV episomes by QPCR (HPV 16 [4]; concentrations as low as 5 μM): undetectable levels; IC50 (HPV 16 [4]; read-out: IC50 against HPV 16): 0.1 µM
,,C=C(C)[C@H]1Cc2c(ccc3c2O[C@@H]2COc4cc(OC)c(OC)cc4[C@@H]2C3=O)O1 [rotenone],,,,,CC50 at 24 h [1]: 0.49 µM
,,"Nc1ccn(C[C@@H](CO)OCP(=O)(O)O)c(=O)n1 [Cidofovir, reference compound]",,,also affect cell viability,only effective against HPV DNA at high concentrations,"CC50 (MTT cell viability assay): 750 µM; loss of total HPV DNA content (HPV 16 [4]; 72 hours, only at very high concentrations, FIG. 1): approximately 40%; selectivity index (SI: ratio of IC50 to TD50) (HPV 16 [4]; cell culture): 2.5"
> 1 µM,0.1 to 1 µM,"CN(CCCN)CCCNC(=O)CCNC(=O)c1cc(NC(=O)c2cc(NC(=O)c3cc(NC(=O)CCNC(=O)c4cc(NC(=O)c5cc(NC(=O)c6cc(NC(=O)[C@H](N)CCNC(=O)c7cc(NC(=O)c8cc(NC(=O)c9cc(NC(=O)CCNC(=O)c%10cc(NC(=O)c%11cc(NC(=O)c%12nccn%12C)cn%11C)cn%10C)cn9C)cn8C)cn7C)cn6C)cn5C)cn4C)cn3C)cn2C)cn1C [Polyamide 1020, ImPPβPPPγNH2PPPβPPPβTa]",,,,,episomal DNA content by Southern blot (HPV episomal DNA): expected decrease in episomal DNA content

SMILES,IC50 (HPV 16 [4]; [6]),IC50 (HPV31),IC50 (HPV18),effect on absolute HPV 16 DNA levels (HPV 16 [4]),effect on cell viability [5],effect on HPV viral DNA (HPV 16 [4]),further results
"CN(CCCN)CCCNC(=O)CCNC(=O)c1cc(NC(=O)c2cc(NC(=O)c3cc(NC(=O)CCNC(=O)c4cc(NC(=O)c5cc(NC(=O)c6cc(NC(=O)CCNC(=O)c7cc(NC(=O)c8cc(NC(=O)[C@H](N)CCNC(=O)c9cc(NC(=O)c%10cc(NC(=O)CCNC(=O)c%11cc(NC(=O)c%12nc(NC(=O)c%13cc(NC(=O)CCNC(=O)c%14cc(NC(=O)c%15cc(NC(=O)c%16nccn%16C)cn%15C)cn%14C)cn%13C)cn%12C)cn%11C)cn%10C)cn9C)cn8C)cn7C)cn6C)cn5C)cn4C)cn3C)cn2C)cn1C [Polyamide 1037, ImPPβPIPβPPγNH2PPβPPPβPPPβTa]",0.1 to 1 µM,≤ 0.1 µM,≤ 0.1 µM,nearly complete elimination of detectable viral DNA,little impact on cell viability,dramatic reduction of viral DNA levels,
